Data taken from patent US8110586B2, “8-aza-bicyclo[3.2.1]octane derivatives and their use as monoamine neurotransmitter re-uptake inhibitors” (Neurosearch A/S, priority 2006, dated 2012).
Where a name gives a salt, the structure may show the parent alone.

Assays:
[1] = biological target: T1, reuptake of dopamine (DA) in synaptosomes (Rattus norvegicus, UniProt P23977); assay: Inhibition of dopamine reuptake in synaptosomes; format: biochemical; details: 3H-DA, read-out: DA-uptake IC50
T1 construct: in synaptosomes as described in WO 97/16451; from tissue
T1 sequence (P23977 whole entry): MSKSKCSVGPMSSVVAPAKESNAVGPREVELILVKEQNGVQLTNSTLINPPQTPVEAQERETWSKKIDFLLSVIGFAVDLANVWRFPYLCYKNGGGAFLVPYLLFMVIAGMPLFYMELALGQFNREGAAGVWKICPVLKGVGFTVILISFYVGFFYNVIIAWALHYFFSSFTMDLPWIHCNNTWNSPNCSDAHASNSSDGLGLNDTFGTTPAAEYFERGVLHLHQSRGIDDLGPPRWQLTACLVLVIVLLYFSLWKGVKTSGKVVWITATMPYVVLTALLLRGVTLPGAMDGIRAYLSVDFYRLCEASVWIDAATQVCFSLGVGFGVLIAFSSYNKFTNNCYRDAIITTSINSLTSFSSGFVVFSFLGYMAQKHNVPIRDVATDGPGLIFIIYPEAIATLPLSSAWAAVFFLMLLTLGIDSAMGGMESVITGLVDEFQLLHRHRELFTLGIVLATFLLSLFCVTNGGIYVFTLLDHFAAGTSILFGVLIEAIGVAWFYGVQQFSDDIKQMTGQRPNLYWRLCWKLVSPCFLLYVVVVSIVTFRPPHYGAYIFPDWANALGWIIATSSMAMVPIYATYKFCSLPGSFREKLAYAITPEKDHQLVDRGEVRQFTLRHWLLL

[2] = biological target: T2, reuptake of serotonine (5-HT) in synaptosomes (Rattus norvegicus, UniProt P31652); assay: Inhibition of serotonin reuptake in synaptosomes; format: biochemical
T2 construct: in synaptosomes as described in WO 97/16451; from tissue
T2 sequence (P31652 whole entry): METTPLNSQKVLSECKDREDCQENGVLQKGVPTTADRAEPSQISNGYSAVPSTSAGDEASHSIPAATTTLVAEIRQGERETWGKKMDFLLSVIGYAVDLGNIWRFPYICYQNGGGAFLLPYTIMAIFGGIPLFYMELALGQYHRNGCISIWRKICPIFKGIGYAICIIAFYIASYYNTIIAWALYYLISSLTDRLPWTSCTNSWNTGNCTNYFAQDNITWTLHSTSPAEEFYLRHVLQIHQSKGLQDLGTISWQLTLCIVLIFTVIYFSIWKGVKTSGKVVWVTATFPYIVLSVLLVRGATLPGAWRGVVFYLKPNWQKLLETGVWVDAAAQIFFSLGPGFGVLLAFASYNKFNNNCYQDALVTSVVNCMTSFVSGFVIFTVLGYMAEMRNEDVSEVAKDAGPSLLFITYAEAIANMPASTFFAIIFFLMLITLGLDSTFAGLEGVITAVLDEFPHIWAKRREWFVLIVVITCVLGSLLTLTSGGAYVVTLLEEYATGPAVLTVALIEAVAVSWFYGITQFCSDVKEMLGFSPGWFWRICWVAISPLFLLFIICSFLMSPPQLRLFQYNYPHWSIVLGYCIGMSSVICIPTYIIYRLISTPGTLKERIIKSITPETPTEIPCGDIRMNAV
Method: A number of compounds were tested for their ability to inhibit the reuptake of the monoamine neurotransmitters dopamine (DA) noradrenaline (NA) and serotonine (5-HT) in synaptosomes as described in WO 97/16451.
The test values are given as IC50 (the concentration (μM) of the test substance which inhibits the specific binding of ^3H-DA, ^3H-NA, or ^3H-5-HT by 50%).

Row | SMILES | IC50 [1] [nM] | IC50 [2] [nM] | melting point [°C]
1 | COc1ccc2ccc(OC3CC4CCC(C3)N4)cc2c1 (stereo not drawn) [Last compound of Example A, exo-3-(7-Methoxy-naphthalen-2-yloxy)-8-aza-bicyclo[3.2.1]octane] | 1400 | 0.42 | –
2 | COc1ccc2cc(OC3CC4CCC(C3)N4)ccc2c1 (stereo not drawn) [First compound of Example A, exo-3-(6-Methoxy-naphthalen-2-yloxy)-8-aza-bicyclo[3.2.1]octane] | 420 | 26 | –
3 | COc1ccc2ccc(OC3CC4CCC(C3)N4)cc2c1 (stereo not drawn) (as salt: hydrochloric acid salt) [Last compound of Example A, exo-3-(7-Methoxy-naphthalen-2-yloxy)-8-aza-bicyclo[3.2.1]octane] | – | – | 225
4 | COc1ccc2cc(OC3CC4CCC(C3)N4)ccc2c1 (stereo not drawn) (as salt: hydrochloric acid salt) [First compound of Example A, exo-3-(6-Methoxy-naphthalen-2-yloxy)-8-aza-bicyclo[3.2.1]octane] | – | – | 237 to 239
